This is an account of results in BindingDB's records for doi:10.1021/jm00145a024 (1985).

The nature of the test: Inhibitory binding constant in guinea pig brain homogenate was reported at Opioid receptor delta 1 at a temperature 25 degree Celsius labeled with [3H](D-Ala2-D-Leu5)-enkephalin (0.7 nM).

pKi: −log10 of the molar value.

`O=C1c2ccc(O)c3c2C24CCN(CC5CC5)C1[C@]2(O)CCC(=O)[C@@H]4O3` (stereo partly specified) gave a pKi of 6.55.
